Values after ≈ are worked out from the molar mass of the structure shown.
Legend:
[1] = system: SW620 xenograft; test: SW620 colorectal flank xenograft in nude mice; assay type: in vivo; conditions: 8 mg/kg IV, TIW for 21 days
Source text: FIG. 6A-6D show the evaluated in-vivo efficacy of Compound AA in a colorectal mouse flank xenograft models (HCT116, SW620). […] HCT-116 or SW620 cells (5×10^6 cells/mouse) were implanted in the rear flank of mail mice (6 weeks of age at the time of tumor implantation). On Day 20-23, mice were randomized for equivalent distribution of tumor volumes to treatment groups (n=5/group) and treated IV with vehicle, Compound AA (FIG. 6A, FIG. 6B) TIW for 21 days. Data are presented as mean tumor volume±SD. Body weight % changes in treated animals observed at end point (FIG. 6C, FIG. 6D). Animal xenograft models. MM1.S, HCT-116, SW620 cell lines were purchased from ATCC and used for xenograft model. The cells were cultured in RPMI medium (Sigma-Aldrich) supplemented with 10% fetal bovine serum (FBS) and divided for up to 5 passages. Shortly prior to injection, cell suspension was mixed with Matrigel at 1:[…]) and injected subcutaneously to the rear flank area of male nude athymic 6 weeks old mice to obtain administration of 5×10^6 cells/animal. On day 20-23, when tumor volume reached 100-150 mm^3, mice were randomized for equivalent distribution of tumor volumes to treatment groups (n=5/group) and treated via intravenous injection.

[2] = system: TK-10; test: NCI60 screen cytotoxicity; assay type: cell-based; conditions: Homo sapiens, Renal cancer, read-out: Compound B1 EC50
[3] = system: SF-268; test: NCI60 screen cytotoxicity; assay type: cell-based; conditions: Homo sapiens, CNS, read-out: Compound B1 EC50
[4] = system: 786-0; test: NCI60 screen cytotoxicity; assay type: cell-based; conditions: Homo sapiens, Renal cancer, read-out: Compound B1 EC50
[5] = system: EKVX; test: NCI60 screen cytotoxicity; assay type: cell-based; conditions: Homo sapiens, Lung cancer, read-out: Compound B1 EC50
[6] = system: OVCAR-4; test: NCI60 screen cytotoxicity; assay type: cell-based; conditions: Homo sapiens, Ovarian cancer, read-out: Compound B1 EC50
[7] = system: MDA-MB-468; test: NCI60 screen cytotoxicity; assay type: cell-based; conditions: Homo sapiens, Breast cancer, read-out: Compound B1 EC50
[8] = system: MALME-3M; test: NCI60 screen cytotoxicity; assay type: cell-based; conditions: Homo sapiens, Melanoma, read-out: Compound B1 EC50
[9] = system: MDA-MB-435; test: NCI60 screen cytotoxicity; assay type: cell-based; conditions: Homo sapiens, Melanoma, read-out: Compound B1 EC50
[10] = system: OVCAR-8; test: NCI60 screen cytotoxicity; assay type: cell-based; conditions: Homo sapiens, Ovarian cancer, read-out: Compound B1 EC50
[11] = system: KM-12; test: NCI60 screen cytotoxicity; assay type: cell-based; conditions: Homo sapiens, KM12, Colon cancer, read-out: Compound B1 EC50
[12] = system: SN12C; test: NCI60 screen cytotoxicity; assay type: cell-based; conditions: Homo sapiens, Renal cancer, read-out: Compound B1 EC50
[13] = system: CCRF-CEM; test: NCI60 screen cytotoxicity; assay type: cell-based; conditions: Homo sapiens, Leukemia, read-out: Compound B1 EC50
[14] = Kinetic solubility by differential UV absorbance; assay type: physicochemical; conditions: aqueous buffer, kinetic from dmso stock; DMSO stock diluted in PBS, OD before and after centrifugation
Experimental: FIG. 3A-3B depict the kinetic solubility of Compound B1 (FIG. 3A) and Compound E1 (FIG. 3B) as measured by differential UV absorbance of the compounds, as performed before and after centrifugation. Soluble concentrations were determined when OD was equivalent between centrifuged and non-centrifuged fractions. Compounds were dissolved from co-solvent stock, and further serially 2-fold diluted in PBS. OD was measured at the maximal absorbance for each compound before (BC) and after (AC) centrifugation, using Spark 20M, Tecan.
Kinetic solubility quantification. Compound B1/Compound E1 DMSO stock was diluted with PBS by serial 2-fold dilutions. Then, the samples were centrifuged for 5 minutes at 17,000 g to precipitate any insoluble compound. Each sample was tested at a single wave length (Compound B1 at […]; Compound E1 at […]) in duplicate before and after centrifugation to assess solubility of the compound. Soluble concentrations were determined when optical density (OD) was equivalent between centrifuged and non-centrifuged fractions.
Kinetic solubility of all Compounds was determined by differential UV absorbance before and after centrifugation. […] Solubility concentration was determined when OD was equivalent between centrifuged and non-centrifuged fractions (FIG. 3A-3B).

[15] = system: UO-31; test: NCI60 screen cytotoxicity; assay type: cell-based; conditions: Homo sapiens, Renal cancer, read-out: Compound B1 EC50
[16] = system: COLO-205; test: NCI60 screen cytotoxicity; assay type: cell-based; conditions: Homo sapiens, Colon cancer, read-out: Compound B1 EC50

Structure (SMILES) | Animal body weight [1] | tumor growth compared to vehicle control [1] | EC50 [2] | EC50 [3] | EC50 [4] | EC50 [5] | EC50 [6] | EC50 [7] | EC50 [8] | EC50 [9] | EC50 [10] | EC50 [11] | EC50 [12] | EC50 [13] | solubility kinetic [14] | EC50 [15] | EC50 [16]
CN(C)CCCS(=O)(=O)N1C/C(=C\c2ccc(C#N)cc2)C(=O)/C(=C/c2ccc(C#N)cc2)C1 [Compound AA] | not considerably affected | significantly inhibited tumor growth |  |  |  |  |  |  |  |  |  |  |  |  |  |  | 
CN(C)CC(=O)NCC(=O)N1C/C(=C\c2ccc(C#N)cc2)C(=O)/C(=C/c2ccc(C#N)cc2)C1 [Compound B1] |  |  | 300 to 1000 nM | < 300 nM | 300 to 1000 nM | 300 to 1000 nM | 300 to 1000 nM | < 300 nM | < 300 nM | < 300 nM | < 300 nM | < 300 nM | < 300 nM | < 300 nM | 50 µM (≈ 23.4 µg/mL) | 300 to 1000 nM | 300 to 1000 nM

— patent US20200399262A1, “COMPOUNDS FOR INHIBITING PROTEIN DEGRADATION AND METHODS OF USE THEREOF IN THE TREATMENT OF CANCER” (PI Therapeutics Ltd, priority 2018, published 2020)
